# Reference: EP0055702B1, “Antithrombotic treatment” (priority 1980, dated 1982)
# Several values for one entry are separate records, joined by “and”; a condition that tells them apart may be missing. Equal entries are not always repeated. Where two headings read alike, the source gives them in different places.
# Tests used:
# [1] = system: human, rabbit and rat plasma; assay: PTT (partial thromboplastin time) in plasma in vitro, Example 3; type: biochemical; conditions: for PTT (seconds) Exp. 1 A / PTT (seconds) Exp. 2 A: active agent 0.5/ml, control
# From the text: (§1) Sodium, potassium and ammonium bisulphites are found to prolong PT and PTT in a dose-related fashion.
# (§2) The evaluation procedure used is that described in "Human Blood Coagulation, Haemostasis and Thrombosis", edited by Rosemary Biggs, published by Blackwell Scientific Publications, Oxford, England (2nd Edition), pages 670-705, 1976.
# [2] = system: human, rabbit and rat plasma; assay: PT (prothrombin time) in plasma in vitro, Example 3; type: biochemical
# From the text: as §1, §2
# [3] = target: T1, F VIII (Homo sapiens, UniProt P00451); assay: Factor VIII assay, Example 4; type: biochemical; conditions: for F VIII: Control 57
# T1 construct: from tissue; host or cells: human plasma
# From the text: (§3) The evaluation procedure used is that described in "Human Blood Coagulation, Haemostasis and Thrombosis", edited by Rosemary Biggs, published by Blackwell Scientific Publications, Oxford, England (2nd Edition), pages 670-705, 1976. […]
# [4] = target: T2, F X (Homo sapiens, UniProt P00742); assay: Factor X assay, Example 4; type: biochemical; conditions: for F X: Control 78
# T2 construct: from tissue; host or cells: human plasma
# From the text: as §3
# [5] = system: platelet thrombus formation on damaged aortic wall; assay: Indium-111 platelet labelling technique in rabbits; type: in vivo; conditions: intravenous 72.80 mg/kg
# Protocol: In medicine, arterial thrombosis is diagnosable, for example, by clinical manifestations, by arteriography and, recently, by an indium 111 platelet labelling technique (see, for example, the article entitled "Differential Effects of Two Doses of Aspirin on Platelet-Vessel Wall Interaction In Vivo" by K. K. Wu et al being published in the Journal of Clinical Investigation, August, 1981).
# Sodium bisulphite was evaluated as an anti-thrombotic agent in vivo using the indium-111 platelet labelling technique in rabbits (see the Wu et al article above cited). The material was administered by intravenous injection (72.80 milligrams per kilogram of animal body weight).
# [6] = system: platelet aggregation induced by adenosine diphosphate (ADP); conditions: rabbit blood, Kikugawa, cited from earlier work
# [7] = PT of coded and various agents, Example 6; type: biochemical
# From the text: A variety of agents were coded and evaluated under a code designation. Among these compounds, thiouracil, mercaptosuccinic acid, thiosemicarbazide, phenothiazine and sodium thiosulphate were included, so as to compare sodium bisulphite with certain compounds mentioned in USP 4,148,855.
# After determination of PT and PTT values, the coded compounds were decoded.
# The results are shown in Table V, where mean values of 5 replications in each case are reported. […] This procedure was repeated with some additional compounds on two different days using a different control on each day.
# [8] = system: human plasma; assay: Thrombin Time, Example 4; type: biochemical; conditions: Control 12.00
# From the text: as §3
# [9] = target: T3, F XII (Homo sapiens, UniProt P00748); assay: Factor XII assay, Example 4; type: biochemical; conditions: for F XII: Control 86
# T3 construct: from tissue; host or cells: human plasma
# T3 sequence (P00748 20-615): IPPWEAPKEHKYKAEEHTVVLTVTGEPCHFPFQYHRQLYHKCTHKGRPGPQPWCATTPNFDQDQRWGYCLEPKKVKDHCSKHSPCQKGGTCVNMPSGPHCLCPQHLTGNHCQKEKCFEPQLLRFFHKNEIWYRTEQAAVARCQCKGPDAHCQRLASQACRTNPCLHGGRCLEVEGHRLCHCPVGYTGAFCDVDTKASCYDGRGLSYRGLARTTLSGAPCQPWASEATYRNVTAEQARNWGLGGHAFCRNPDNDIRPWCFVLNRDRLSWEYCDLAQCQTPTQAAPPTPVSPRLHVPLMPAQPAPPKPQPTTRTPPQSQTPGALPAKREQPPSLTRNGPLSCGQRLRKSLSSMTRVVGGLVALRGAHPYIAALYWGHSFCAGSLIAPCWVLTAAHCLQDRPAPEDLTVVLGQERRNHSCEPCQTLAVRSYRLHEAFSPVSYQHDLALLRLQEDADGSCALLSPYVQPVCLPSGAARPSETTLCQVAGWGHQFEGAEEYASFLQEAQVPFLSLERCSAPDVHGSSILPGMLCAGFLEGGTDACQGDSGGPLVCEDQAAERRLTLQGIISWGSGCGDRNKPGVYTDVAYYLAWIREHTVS
# From the text: as §3
# [10] = 0.5 mg/ml, human, rabbit and rat plasma in vitro, dose-related
# [11] = Test sequence A, active agent 0.5/ml, control
# [12] = Sodium bisulphite 0.01 mg/ml, solution D
# [13] = Sodium bisulphite 0.05 mg/ml, solution D
# [14] = Sodium bisulphite 0.1 mg/ml, solution D
# [15] = Sodium bisulphite 0.5 mg/ml, solution D
# [16] = Sodium bisulphite 1.0 mg/ml, solution D
# [17] = Sodium bisulphite 5.0 mg/ml, solution D
# [18] = chemical grade sodium bisulphite 0.01 mg/ml
# [19] = chemical grade sodium bisulphite 0.05 mg/ml
# [20] = chemical grade sodium bisulphite 0.1 mg/ml
# [21] = chemical grade sodium bisulphite 0.5 mg/ml
# [22] = chemical grade sodium bisulphite 1.0 mg/ml
# [23] = chemical grade sodium bisulphite 5.0 mg/ml
# T1 sequence (P00451 20-2351): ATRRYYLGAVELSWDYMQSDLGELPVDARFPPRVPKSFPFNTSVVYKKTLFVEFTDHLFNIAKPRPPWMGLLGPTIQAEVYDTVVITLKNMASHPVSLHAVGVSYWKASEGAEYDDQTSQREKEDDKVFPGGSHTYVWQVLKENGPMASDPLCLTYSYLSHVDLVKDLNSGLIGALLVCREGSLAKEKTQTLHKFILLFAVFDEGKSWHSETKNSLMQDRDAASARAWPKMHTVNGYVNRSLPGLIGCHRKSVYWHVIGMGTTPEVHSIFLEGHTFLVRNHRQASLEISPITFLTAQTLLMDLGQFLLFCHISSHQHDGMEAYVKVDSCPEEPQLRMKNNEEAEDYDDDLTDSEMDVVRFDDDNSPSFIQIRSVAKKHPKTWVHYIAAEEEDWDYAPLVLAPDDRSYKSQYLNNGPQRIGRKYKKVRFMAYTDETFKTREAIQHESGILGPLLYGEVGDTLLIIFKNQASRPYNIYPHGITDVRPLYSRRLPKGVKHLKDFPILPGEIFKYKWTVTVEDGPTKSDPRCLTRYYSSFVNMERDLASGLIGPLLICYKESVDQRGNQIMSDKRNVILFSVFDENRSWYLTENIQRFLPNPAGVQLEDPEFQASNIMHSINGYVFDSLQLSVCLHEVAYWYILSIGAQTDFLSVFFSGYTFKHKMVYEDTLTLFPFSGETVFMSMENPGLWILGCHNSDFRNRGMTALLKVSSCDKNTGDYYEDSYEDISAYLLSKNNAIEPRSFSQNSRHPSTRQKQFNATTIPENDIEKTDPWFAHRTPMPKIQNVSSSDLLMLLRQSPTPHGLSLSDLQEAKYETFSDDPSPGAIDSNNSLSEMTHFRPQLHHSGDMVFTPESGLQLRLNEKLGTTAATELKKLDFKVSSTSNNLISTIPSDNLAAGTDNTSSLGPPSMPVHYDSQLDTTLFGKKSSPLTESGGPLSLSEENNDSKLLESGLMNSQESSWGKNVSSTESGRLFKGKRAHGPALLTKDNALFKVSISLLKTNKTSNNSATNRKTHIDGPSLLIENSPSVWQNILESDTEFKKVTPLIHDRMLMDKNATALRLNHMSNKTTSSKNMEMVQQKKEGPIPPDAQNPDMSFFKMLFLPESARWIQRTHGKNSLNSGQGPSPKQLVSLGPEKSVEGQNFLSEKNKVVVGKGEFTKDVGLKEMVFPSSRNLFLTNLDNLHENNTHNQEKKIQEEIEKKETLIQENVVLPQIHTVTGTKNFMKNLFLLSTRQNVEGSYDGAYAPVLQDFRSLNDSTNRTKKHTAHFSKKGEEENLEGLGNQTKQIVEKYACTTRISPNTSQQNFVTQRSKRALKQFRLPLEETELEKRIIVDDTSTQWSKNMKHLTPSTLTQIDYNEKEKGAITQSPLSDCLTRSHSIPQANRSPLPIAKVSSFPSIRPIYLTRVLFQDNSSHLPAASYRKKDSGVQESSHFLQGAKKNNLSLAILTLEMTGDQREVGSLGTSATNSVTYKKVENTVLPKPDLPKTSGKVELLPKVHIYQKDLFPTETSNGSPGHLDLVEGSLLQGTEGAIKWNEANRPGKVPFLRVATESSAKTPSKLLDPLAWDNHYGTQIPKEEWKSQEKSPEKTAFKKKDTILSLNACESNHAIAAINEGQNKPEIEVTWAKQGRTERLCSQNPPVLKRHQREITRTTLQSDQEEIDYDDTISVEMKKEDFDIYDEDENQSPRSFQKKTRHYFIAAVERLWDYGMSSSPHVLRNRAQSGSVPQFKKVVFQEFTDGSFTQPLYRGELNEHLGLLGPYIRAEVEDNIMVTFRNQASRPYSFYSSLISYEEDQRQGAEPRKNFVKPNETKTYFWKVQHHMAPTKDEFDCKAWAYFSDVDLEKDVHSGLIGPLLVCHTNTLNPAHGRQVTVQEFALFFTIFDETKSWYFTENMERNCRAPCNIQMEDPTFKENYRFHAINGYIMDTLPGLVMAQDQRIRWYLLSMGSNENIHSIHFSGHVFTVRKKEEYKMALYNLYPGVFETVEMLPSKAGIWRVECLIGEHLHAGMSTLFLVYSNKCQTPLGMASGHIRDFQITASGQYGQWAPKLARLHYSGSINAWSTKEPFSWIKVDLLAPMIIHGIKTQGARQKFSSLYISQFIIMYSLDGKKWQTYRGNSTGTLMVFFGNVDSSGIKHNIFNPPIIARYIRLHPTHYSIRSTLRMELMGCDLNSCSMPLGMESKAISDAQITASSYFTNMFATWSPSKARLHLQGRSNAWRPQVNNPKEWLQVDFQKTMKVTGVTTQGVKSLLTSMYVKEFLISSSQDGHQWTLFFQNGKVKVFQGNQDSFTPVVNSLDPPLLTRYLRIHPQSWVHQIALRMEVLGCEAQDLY
# T2 sequence (P00742 41-488): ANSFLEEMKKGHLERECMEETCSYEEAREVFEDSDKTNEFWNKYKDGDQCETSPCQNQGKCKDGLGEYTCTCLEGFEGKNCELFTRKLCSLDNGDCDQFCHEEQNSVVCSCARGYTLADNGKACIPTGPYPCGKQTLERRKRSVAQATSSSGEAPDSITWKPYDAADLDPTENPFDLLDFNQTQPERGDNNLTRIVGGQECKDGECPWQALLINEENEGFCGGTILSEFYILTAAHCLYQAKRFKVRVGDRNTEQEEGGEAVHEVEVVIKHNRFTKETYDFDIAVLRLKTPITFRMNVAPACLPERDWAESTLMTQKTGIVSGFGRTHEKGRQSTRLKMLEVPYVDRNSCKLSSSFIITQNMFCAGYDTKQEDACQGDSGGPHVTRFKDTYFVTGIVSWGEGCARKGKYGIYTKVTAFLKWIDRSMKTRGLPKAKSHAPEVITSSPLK
substance,measurement,setting,value
Sodium bisulphite,prolongation of PTT,[1]; [10],significantly prolong
same,PTT (seconds) Exp. 1 A,[1]; Test sequence A,128.2 s
same,PTT (seconds) Exp. 2 A,[1]; Test sequence A,121.9 s
same,PTT (seconds) Exp. 1 A,[1]; Test sequence B,128.2 s
same,PTT (seconds) Exp. 2 A,[1]; Test sequence B,162.6 s
same,prolongation of PT,[2]; [10],significantly prolong
same,PT (seconds) Exp. 1 A,[2]; [11],22.1 s
same,PT (seconds) Exp.2 A,[2]; [11],23.2 s
same,PT (seconds) Exp. 1 A,"[2]; Test sequence B, active agent 0.5/ml, control",25.5 s
same,F VIII,[3]; [12],62%
same,F VIII,[3]; [13],68%
same,F VIII,[3]; [14],55%
same,F VIII,[3]; [15],58%
same,F VIII,[3]; [16],29%
same,F VIII,[3]; [17],11%
same,F VIII,[3]; [18],58
same,F VIII,[3]; [19],55
same,F VIII,[3]; [20],56
same,F VIII,[3]; [21],55
same,F VIII,[3]; [22],31
same,F VIII,[3]; [23],13
same,effect on Factor VIII,[3]; human plasma,mildly affected
same,effect on Factor X,"[4]; 0.5 mg per ml, human plasma",significant inhibitory effect
same,F X,[4]; [12],73%
same,F X,[4]; [13],68%
same,F X,[4]; [14],66%
same,F X,[4]; [15],31%
same,F X,[4]; [16],11%
same,F X,[4]; [17],3%
same,F X,[4]; [18],80
same,F X,[4]; [19],69
same,F X,[4]; [20],66
same,F X,[4]; [21],22
same,F X,[4]; [22],6
same,F X,[4]; [23],4
same,Platelet accumulation II. at normal vessel wall cpm/gm,"[5]; rabbits A, B, per gram dry weight of tissue, Control 72,140± 39,040","98,611 cpm/gm and 83,066 cpm/gm"
same,Platelet accumulation I. at damaged vessel wall cpm/gm,"[5]; rabbits A, B, per gram dry weight of tissue, Control 1,167,820± 21,310","133,986 cpm/gm and 146,630 cpm/gm"
same,Platelet accumulation II. at normal vessel wall %,"[5]; rabbits A, B, percentage of injected radioactivity per gram dry weight, Control 0.03± 0.02",0.08%
same,Platelet accumulation I. at damaged vessel wall %,"[5]; rabbits A, B, percentage of injected radioactivity per gram dry weight, Control 0.44± 0.08, 72.8 mg/kg",0.11% and 0.15%
same,reduction of accumulation of platelet thrombus at the damaged vessel wall,[5]; rabbits,70%
same,inhibition of platelet aggregation induced by ADP,[6]; 1 mM,9%
same,inhibition of platelet aggregation induced by ADP,[6]; 5 mM,66%
same,inhibition of platelet aggregation induced by ADP,[6]; 10 mM,69%
same,PT,[7],22.42 s
same,PT,"[7]; Table V, coded agents 0.5 mg/ml, Control 12.92",23.06 s
same,TT,[8]; [12],12.07 s
same,TT,[8]; [13],12.10 s
same,TT,[8]; [14],12.00 s
same,TT,[8]; [15],13.97 s
same,TT,[8]; [16],16.08 s
same,TT,[8]; [17],34.3 s
same,TT,[8]; [18],12.20 s
same,TT,[8]; [19],12.30 s
same,TT,[8]; [20],12.15 s
same,TT,[8]; [21],14.53 s
same,TT,[8]; [22],16.23 s
same,TT,[8]; [23],35.5 s
same,effect on Factor XII,"[9]; 0.5 mg per ml, human plasma",significant inhibitory effect
same,F XII,[9]; [12],94%
same,F XII,[9]; [13],87%
same,F XII,[9]; [14],79%
same,F XII,[9]; [15],17%
same,F XII,[9]; [16],3%
same,F XII,[9]; [17],<1%
same,F XII,[9]; [18],104
same,F XII,[9]; [19],102
same,F XII,[9]; [20],75
same,F XII,[9]; [21],25
same,F XII,[9]; [22],9
same,F XII,[9]; [23],<1
